Molecular target: T1, bacteriorhodopsin (BR) (Halobacterium salinarum, UniProt P02945)
T1 sequence (P02945 14-262): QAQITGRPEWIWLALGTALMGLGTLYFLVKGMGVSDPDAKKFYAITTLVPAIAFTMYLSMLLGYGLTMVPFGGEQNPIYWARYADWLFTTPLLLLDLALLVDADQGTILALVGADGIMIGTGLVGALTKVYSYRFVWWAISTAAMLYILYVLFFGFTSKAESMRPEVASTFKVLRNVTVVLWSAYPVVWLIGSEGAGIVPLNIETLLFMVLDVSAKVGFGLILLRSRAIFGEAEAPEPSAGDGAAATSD
Assay: low-temperature FTIR-difference spectroscopy
Assay type: binding
Conditions: covalent; protonated Schiff base; 80 K; native purple membrane

CC1=C(/C=C/C(C)=C/C=C/C(C)=C/C=O)C(C)(C)CCC1 [A1 retinal, all-trans-retinal]
low-temperature FTIR-difference spectroscopy: Negative bands appear at similar frequencies in the FTIR-difference spectrum of CaChR1 and BR
